Reference: PubChem BioAssay (NCI)
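1) Cells in 96-well plates. 2) Compound, 48 h, 5 concentrations. 3) Linear interpolation between surrounding doses. 4) Unreached endpoint = highest concentration. TGI denotes the concentration required for complete inhibition of growth.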

Experiments:
Test in all cases: NCI tumour cell line growth inhibition, 48 h
OVCAR-3 ovarian = system: OVCAR-3 ovarian
SW-620 colon = system: SW-620 colon
SF-539 CNS = system: SF-539 CNS
SNB-19 CNS = system: SNB-19 CNS
HOP-62 NSCLC = system: HOP-62 NSCLC
EKVX NSCLC = system: EKVX NSCLC
COLO 205 colon = system: COLO 205 colon
SF-295 CNS = system: SF-295 CNS
786-0 renal = system: 786-0 renal
HL-60(TB) leukemia = system: HL-60(TB) leukemia
U251 CNS = system: U251 CNS
RXF 393 renal = system: RXF 393 renal
NCI-H460 lung = system: NCI-H460 lung
HCT-116 colon = system: HCT-116 colon
M14 melanoma = system: M14 melanoma
SNB-75 CNS = system: SNB-75 CNS
OVCAR-4 ovarian = system: OVCAR-4 ovarian
OVCAR-5 ovarian = system: OVCAR-5 ovarian
OVCAR-8 ovarian = system: OVCAR-8 ovarian
HCC-2998 colon = system: HCC-2998 colon
PC-3 prostate = system: PC-3 prostate
MCF7 breast = system: MCF7 breast
SK-MEL-5 melanoma = system: SK-MEL-5 melanoma
UACC-257 melanoma = system: UACC-257 melanoma
LOX IMVI melanoma = system: LOX IMVI melanoma
TK-10 renal = system: TK-10 renal
A549 NSCLC = system: A549 NSCLC
MDA-MB-231 breast = system: MDA-MB-231 breast
RPMI-8226 leukemia = system: RPMI-8226 leukemia
HCT-15 colon = system: HCT-15 colon
A498 renal = system: A498 renal
SK-OV-3 ovarian = system: SK-OV-3 ovarian
CCRF-CEM leukemia = system: CCRF-CEM leukemia
T-47D breast = system: T-47D breast
HOP-92 NSCLC = system: HOP-92 NSCLC
MOLT-4 leukemia = system: MOLT-4 leukemia
HT29 colon = system: HT29 colon
NCI-H23 lung = system: NCI-H23 lung
SN12C renal = system: SN12C renal
SK-MEL-28 melanoma = system: SK-MEL-28 melanoma
K-562 leukemia = system: K-562 leukemia
NCI-H226 lung = system: NCI-H226 lung
CAKI-1 renal = system: CAKI-1 renal
MDA-N = system: MDA-N
MDA-MB-435 = system: MDA-MB-435
SF-268 CNS = system: SF-268 CNS
NCI/ADR-RES ovarian = system: NCI/ADR-RES ovarian
KM12 colon = system: KM12 colon
ACHN renal = system: ACHN renal
UACC-62 melanoma = system: UACC-62 melanoma
DU-145 prostate = system: DU-145 prostate
UO-31 renal = system: UO-31 renal
IGROV1 ovarian = system: IGROV1 ovarian
NCI-H522 lung = system: NCI-H522 lung
BT-549 breast = system: BT-549 breast
SK-MEL-2 melanoma = system: SK-MEL-2 melanoma
SR leukemia = system: SR leukemia
MALME-3M melanoma = system: MALME-3M melanoma

Measured: TGI

Cc1nn(-c2ccccc2)c2nc3c(c(C)nn3-c3ccccc3)c(-c3ccc(C(F)(F)F)cc3)c12
92.6 µM: SNB-75 CNS
not listed: IGROV1 ovarian | NCI-H522 lung | BT-549 breast | SK-MEL-2 melanoma | SR leukemia | MALME-3M melanoma
> 100 µM: all other assays above

NC(Cc1ccc(O)c(O)c1)P(=O)(O)O (stereo unspecified)
45.7 µM: HL-60(TB) leukemia
43.2 µM: SW-620 colon
42 µM: K-562 leukemia
95.7 µM: T-47D breast
68.6 µM: CCRF-CEM leukemia
20.1 µM: NCI-H522 lung
not listed: HOP-62 NSCLC | EKVX NSCLC | COLO 205 colon | MCF7 breast | LOX IMVI melanoma | SK-OV-3 ovarian
> 100 µM: all other assays above

CCCCCCCCCCCCCCCCCCOP1(=O)OCCO1
83.9 µM: PC-3 prostate
75.3 µM: HL-60(TB) leukemia
75.4 µM: RXF 393 renal
not listed: NCI-H460 lung | SF-268 CNS | BT-549 breast | SR leukemia
> 100 µM: all other assays above

COc1ccn(CC(=O)c2cc3ccccc3[nH]2)c(=O)n1
not listed: SR leukemia
> 100 µM: all other assays above

CCc1nnc(CC)n1N1C(=O)CCC1=O
not listed: HL-60(TB) leukemia | NCI-H460 lung | A498 renal | T-47D breast | NCI-H226 lung | CAKI-1 renal | MALME-3M melanoma
> 100 µM: all other assays above
